{
  "source": "ChEMBL document CHEMBL5465560",
  "about": "“Selectivity Literature for EUbOPEN Chemogenomic Library” (2024)",
  "key": {"[1]": {"molecular_target": "Mitogen-activated protein kinase kinase kinase 9 (Homo sapiens) (UniProt P80192)", "experiment": "Selectivity interaction (Kinase panel (Z-LYTE Assay)) EUB0001632a MAP3K9", "details": "at 10 µM"}, "[2]": {"molecular_target": "T1, Protein kinase C theta type (Homo sapiens, UniProt Q04759)", "T1 sequence (Q04759 whole entry, looked up)": "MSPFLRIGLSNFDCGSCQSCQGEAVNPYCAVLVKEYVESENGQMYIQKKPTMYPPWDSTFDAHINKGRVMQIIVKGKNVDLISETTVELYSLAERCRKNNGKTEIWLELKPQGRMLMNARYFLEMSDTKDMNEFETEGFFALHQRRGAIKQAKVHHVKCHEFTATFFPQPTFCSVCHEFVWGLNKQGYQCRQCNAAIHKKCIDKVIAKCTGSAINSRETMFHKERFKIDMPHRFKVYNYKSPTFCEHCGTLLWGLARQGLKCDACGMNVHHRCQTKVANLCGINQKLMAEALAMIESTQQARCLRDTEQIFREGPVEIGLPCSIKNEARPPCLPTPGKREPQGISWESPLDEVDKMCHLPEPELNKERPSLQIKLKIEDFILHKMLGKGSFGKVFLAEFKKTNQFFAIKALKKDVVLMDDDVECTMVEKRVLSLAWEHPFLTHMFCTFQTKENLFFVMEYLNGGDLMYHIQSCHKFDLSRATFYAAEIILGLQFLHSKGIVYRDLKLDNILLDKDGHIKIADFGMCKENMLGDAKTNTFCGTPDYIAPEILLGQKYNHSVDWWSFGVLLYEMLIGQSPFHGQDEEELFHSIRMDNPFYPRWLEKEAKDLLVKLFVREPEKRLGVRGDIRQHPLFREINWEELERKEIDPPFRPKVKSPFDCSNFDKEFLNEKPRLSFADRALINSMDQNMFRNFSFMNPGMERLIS", "details": "at 10 µM"}, "[3]": {"molecular_target": "T2, Myosin light chain kinase family member 4 (Homo sapiens) (UniProt Q86YV6)", "T2 sequence (whole entry)": "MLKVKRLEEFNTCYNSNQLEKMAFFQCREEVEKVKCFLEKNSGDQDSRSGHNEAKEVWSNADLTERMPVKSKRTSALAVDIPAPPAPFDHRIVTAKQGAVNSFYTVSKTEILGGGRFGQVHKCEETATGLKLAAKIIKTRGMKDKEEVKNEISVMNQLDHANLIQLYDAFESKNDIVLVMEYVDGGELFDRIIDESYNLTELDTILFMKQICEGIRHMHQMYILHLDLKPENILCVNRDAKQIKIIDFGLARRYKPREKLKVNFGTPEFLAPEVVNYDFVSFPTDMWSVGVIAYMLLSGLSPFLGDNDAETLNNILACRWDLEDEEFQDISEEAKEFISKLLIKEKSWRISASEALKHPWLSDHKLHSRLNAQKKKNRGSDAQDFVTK", "details": "at 10 µM"}, "[4]": {"molecular_target": "Tyrosine-protein kinase Lyn (Homo sapiens, UniProt P07948)", "sequence (P07948 2-512 limits assumed)": "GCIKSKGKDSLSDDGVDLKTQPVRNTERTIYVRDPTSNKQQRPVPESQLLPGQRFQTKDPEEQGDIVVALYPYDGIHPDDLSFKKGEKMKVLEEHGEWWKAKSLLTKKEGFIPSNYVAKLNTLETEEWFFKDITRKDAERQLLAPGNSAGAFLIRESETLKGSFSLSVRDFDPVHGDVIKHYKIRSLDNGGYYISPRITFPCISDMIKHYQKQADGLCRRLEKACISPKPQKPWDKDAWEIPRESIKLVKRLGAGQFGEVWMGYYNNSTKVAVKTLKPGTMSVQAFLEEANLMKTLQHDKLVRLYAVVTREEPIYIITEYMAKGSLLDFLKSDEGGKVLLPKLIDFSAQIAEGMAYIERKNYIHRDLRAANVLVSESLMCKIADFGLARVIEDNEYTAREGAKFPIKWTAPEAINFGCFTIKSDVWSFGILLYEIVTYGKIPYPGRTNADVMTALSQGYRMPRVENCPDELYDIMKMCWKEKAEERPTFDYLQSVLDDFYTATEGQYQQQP", "experiment": "Selectivity interaction (ProQinase) EUB0000171b LYN"}, "[5]": {"molecular_target": "Dual specificity mitogen-activated protein kinase kinase 2 (Homo sapiens) (UniProt P36507)", "sequence (P36507 whole entry)": "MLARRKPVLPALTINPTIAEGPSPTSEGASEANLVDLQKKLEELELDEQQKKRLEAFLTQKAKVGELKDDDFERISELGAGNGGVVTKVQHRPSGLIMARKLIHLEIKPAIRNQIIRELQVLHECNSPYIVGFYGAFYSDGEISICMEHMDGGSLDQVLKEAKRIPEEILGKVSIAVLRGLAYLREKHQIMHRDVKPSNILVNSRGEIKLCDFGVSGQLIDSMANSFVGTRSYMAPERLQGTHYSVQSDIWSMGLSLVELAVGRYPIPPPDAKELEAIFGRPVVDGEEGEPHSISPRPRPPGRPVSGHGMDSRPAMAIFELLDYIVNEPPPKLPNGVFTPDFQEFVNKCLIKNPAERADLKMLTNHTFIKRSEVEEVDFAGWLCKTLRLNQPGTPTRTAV", "experiment": "Selectivity interaction (ProQinase) EUB0000171b MAP2K2"}, "[6]": {"molecular_target": "T1, Protein kinase C theta type", "experiment": "Selectivity interaction (KinomeScan (DiscoverX)) EUB0000695a PRKCQ", "details": "at 100 nM"}, "[7]": {"molecular_target": "T3, Activin receptor type-1 (Homo sapiens) (UniProt Q04771)", "T3 sequence (whole entry)": "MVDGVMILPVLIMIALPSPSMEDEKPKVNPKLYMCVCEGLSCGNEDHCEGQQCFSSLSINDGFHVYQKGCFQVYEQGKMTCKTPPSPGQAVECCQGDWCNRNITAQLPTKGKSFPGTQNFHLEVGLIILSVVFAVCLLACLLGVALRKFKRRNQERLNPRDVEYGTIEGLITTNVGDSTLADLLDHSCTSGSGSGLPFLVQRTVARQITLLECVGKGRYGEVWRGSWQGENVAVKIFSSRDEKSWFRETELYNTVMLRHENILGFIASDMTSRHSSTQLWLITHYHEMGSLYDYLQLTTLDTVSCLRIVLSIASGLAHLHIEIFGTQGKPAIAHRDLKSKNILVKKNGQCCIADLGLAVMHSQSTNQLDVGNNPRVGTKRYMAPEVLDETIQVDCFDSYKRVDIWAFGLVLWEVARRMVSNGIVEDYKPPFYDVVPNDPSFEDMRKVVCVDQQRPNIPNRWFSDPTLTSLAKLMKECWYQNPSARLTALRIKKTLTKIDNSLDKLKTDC", "experiment": "Selectivity interaction (KinomeScan (DiscoverX)) EUB0000595a ACVR1", "details": "at 10 µM"}, "[8]": {"molecular_target": "Glycogen synthase kinase-3 beta (Homo sapiens, UniProt P49841)", "sequence (P49841 whole entry, looked up)": "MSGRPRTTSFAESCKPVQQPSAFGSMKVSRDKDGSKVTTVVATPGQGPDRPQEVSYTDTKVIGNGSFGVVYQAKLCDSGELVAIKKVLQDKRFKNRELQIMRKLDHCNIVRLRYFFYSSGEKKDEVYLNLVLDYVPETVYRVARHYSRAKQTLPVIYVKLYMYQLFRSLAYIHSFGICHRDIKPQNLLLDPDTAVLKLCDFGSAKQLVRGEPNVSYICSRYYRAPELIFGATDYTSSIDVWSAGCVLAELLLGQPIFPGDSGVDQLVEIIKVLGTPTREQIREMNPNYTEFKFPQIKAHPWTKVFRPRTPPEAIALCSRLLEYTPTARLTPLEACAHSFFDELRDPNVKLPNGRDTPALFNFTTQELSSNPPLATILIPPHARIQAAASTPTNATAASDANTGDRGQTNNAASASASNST", "experiment": "Selectivity interaction (KinomeScan (DiscoverX)) EUB0000595a GSK3B", "details": "at 10 µM"}, "[9]": {"molecular_target": "Eukaryotic translation initiation factor 2-alpha kinase 1 (Homo sapiens) (UniProt Q9BQI3)", "sequence (Q9BQI3 whole entry)": "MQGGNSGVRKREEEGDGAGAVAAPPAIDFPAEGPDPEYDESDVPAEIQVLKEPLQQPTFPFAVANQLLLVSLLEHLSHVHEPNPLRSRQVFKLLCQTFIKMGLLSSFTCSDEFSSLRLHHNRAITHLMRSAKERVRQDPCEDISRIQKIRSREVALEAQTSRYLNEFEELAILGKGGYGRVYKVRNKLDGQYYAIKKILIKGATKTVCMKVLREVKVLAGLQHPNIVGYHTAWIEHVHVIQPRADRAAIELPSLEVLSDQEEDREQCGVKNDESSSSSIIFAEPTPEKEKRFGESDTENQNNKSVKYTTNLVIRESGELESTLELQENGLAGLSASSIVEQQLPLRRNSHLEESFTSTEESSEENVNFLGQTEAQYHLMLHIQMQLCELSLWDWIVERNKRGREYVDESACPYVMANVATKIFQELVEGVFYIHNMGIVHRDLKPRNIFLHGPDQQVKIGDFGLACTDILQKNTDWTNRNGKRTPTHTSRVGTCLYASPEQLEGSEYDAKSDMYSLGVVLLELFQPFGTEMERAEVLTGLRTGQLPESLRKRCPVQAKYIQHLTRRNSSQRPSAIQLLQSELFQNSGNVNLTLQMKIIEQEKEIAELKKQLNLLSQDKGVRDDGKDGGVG", "experiment": "Selectivity interaction (KinomeScan (DiscoverX)) EUB0000595a EIF2AK1", "details": "at 10 µM"}, "[10]": {"molecular_target": "Fibroblast growth factor receptor 1 (Homo sapiens, UniProt P11362)", "sequence (P11362 22-822 limits assumed)": "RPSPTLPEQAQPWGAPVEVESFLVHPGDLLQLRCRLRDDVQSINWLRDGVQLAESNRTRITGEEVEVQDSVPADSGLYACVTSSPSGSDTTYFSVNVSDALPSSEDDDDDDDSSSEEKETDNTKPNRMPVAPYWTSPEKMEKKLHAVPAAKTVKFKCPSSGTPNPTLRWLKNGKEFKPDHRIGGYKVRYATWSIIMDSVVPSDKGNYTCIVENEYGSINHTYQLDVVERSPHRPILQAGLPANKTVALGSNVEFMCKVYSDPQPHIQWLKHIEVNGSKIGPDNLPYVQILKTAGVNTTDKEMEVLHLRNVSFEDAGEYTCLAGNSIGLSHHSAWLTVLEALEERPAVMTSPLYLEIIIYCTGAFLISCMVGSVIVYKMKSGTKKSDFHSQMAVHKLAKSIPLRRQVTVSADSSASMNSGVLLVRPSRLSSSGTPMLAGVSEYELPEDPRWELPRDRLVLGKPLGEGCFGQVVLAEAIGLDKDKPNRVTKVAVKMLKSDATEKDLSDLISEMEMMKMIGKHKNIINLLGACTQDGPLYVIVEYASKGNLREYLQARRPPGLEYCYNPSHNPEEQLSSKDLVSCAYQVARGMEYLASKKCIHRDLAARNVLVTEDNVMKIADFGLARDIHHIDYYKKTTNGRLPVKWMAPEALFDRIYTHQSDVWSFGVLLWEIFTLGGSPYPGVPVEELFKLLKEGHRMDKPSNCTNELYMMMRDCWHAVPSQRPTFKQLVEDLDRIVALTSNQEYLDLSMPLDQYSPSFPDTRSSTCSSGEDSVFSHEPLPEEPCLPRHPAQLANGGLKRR", "experiment": "Selectivity interaction (KinomeScan (DiscoverX)) EUB0000595a FGFR1", "details": "at 10 µM"}, "[11]": {"molecular_target": "Serine/threonine-protein kinase pim-1 (Homo sapiens, UniProt P11309)", "sequence (P11309 whole entry, looked up)": "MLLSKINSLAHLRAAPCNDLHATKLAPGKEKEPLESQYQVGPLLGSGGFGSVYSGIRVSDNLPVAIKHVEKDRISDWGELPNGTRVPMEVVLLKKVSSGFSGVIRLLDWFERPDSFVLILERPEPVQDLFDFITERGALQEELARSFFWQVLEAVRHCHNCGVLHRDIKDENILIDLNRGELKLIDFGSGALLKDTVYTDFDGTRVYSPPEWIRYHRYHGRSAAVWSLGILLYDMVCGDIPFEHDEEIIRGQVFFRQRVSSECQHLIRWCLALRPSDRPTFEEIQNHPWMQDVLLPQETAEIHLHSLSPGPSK", "experiment": "Selectivity interaction (Kinase screening (Nanosyn)) EUB0000604a PIM1"}, "[12]": {"molecular_target": "Serine/threonine-protein kinase PLK3 (Homo sapiens, UniProt Q9H4B4)", "sequence (Q9H4B4 whole entry, looked up)": "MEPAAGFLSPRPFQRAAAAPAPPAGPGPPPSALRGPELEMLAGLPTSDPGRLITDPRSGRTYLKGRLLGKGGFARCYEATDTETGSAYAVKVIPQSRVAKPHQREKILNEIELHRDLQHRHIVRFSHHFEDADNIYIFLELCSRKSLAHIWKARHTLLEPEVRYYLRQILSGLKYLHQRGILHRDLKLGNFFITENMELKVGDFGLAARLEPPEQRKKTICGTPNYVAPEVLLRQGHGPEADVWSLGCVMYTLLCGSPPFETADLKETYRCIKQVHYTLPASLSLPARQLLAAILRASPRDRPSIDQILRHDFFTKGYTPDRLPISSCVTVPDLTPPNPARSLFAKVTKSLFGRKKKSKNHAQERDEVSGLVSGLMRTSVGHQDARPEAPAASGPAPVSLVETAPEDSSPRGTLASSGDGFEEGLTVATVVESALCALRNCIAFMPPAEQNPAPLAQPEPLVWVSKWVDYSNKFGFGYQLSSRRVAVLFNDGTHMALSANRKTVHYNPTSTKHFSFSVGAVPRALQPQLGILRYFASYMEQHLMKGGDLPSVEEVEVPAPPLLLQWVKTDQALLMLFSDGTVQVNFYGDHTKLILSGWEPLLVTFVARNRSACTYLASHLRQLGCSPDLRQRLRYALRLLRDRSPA", "experiment": "Selectivity interaction (KinomeScan (DiscoverX)) EUB0001079a PLK3", "details": "at 1 µM"}, "[13]": {"molecular_target": "Cyclin-dependent kinase 15 (Homo sapiens) (UniProt Q96Q40)", "sequence (Q96Q40 whole entry)": "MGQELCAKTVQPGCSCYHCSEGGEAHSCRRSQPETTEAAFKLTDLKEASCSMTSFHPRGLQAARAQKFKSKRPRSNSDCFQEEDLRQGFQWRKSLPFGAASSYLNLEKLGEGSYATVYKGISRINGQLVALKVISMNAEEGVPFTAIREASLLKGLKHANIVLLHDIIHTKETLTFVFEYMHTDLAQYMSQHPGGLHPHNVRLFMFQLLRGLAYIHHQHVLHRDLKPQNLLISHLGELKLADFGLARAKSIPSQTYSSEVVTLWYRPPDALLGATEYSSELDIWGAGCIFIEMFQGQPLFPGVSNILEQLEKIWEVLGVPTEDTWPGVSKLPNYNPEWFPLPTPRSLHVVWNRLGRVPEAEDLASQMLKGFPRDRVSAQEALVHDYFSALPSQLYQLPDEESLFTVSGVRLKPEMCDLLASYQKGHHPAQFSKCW", "experiment": "Selectivity interaction (KinomeScan (DiscoverX)) EUB0001079a CDK15", "details": "at 1 µM"}, "[14]": {"molecular_target": "T4, Phosphatidylinositol 5-phosphate 4-kinase type-2 beta (Homo sapiens) (UniProt P78356)", "T4 sequence (whole entry)": "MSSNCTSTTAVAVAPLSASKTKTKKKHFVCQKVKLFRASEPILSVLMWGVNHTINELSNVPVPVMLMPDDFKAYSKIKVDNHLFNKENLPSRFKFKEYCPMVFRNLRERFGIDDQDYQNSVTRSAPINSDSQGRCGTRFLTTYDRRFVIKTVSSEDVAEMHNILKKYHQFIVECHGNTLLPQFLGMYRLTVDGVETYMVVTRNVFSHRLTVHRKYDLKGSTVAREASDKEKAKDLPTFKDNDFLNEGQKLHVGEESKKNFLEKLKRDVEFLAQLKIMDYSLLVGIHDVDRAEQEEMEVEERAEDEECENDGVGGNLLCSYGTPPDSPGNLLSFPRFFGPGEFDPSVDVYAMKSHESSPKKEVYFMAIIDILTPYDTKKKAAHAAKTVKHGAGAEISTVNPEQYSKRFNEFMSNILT", "details": "at 10 µM"}, "[15]": {"molecular_target": "Serine/threonine-protein kinase 10 (Homo sapiens) (UniProt O94804)", "experiment": "Selectivity interaction (KinomeScan (DiscoverX)) EUB0001619a STK10", "details": "at 1 µM"}, "[16]": {"molecular_target": "T5, Serine/threonine-protein kinase Sgk3 (Homo sapiens) (UniProt Q96BR1)", "T5 sequence (whole entry)": "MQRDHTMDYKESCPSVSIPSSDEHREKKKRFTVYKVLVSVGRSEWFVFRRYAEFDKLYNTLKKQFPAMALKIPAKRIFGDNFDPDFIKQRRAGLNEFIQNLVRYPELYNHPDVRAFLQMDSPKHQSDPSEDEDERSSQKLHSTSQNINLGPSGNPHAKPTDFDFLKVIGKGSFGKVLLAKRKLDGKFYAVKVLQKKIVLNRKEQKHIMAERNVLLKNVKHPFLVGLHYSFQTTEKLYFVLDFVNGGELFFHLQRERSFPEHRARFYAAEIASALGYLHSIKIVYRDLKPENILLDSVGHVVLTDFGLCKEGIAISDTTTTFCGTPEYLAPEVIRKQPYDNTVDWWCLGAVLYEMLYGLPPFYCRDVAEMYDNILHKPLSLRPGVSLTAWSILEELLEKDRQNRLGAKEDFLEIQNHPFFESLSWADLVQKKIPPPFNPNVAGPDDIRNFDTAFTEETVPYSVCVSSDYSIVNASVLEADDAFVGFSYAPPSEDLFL", "experiment": "Selectivity interaction (KinomeScan (DiscoverX)) EUB0001619a SGK3", "details": "at 1 µM"}, "[17]": {"molecular_target": "Serine/threonine-protein kinase SIK3 (Homo sapiens) (UniProt Q9Y2K2)", "experiment": "Selectivity interaction (ActivX KiNativ screen (ex vivo kinase selectivity in human PBMCs)) EUB0001619a SIK3", "assay_type": "cell-based", "details": "PBMC, at 1 µM"}},
  "data": [
    {"smiles": "Cn1cc(-n2cnc3c(NCc4nc5cc(Cl)c(Cl)cc5[nH]4)nc(N4CCOCC4)nc32)cn1", "values": [
      {"measurement": "% of control", "setting": "[1]", "value": -5.34, "unit": "%"}
    ]},
    {"smiles": "CCN(CC)CCCCNc1ncc2cc(-c3cc(OC)cc(OC)c3)c(NC(=O)NC(C)(C)C)nc2n1", "values": [
      {"measurement": "% of control", "setting": "[2]", "value": 100, "unit": "%"},
      {"measurement": "% of control", "setting": "[3]", "value": 100, "unit": "%"}
    ]},
    {"smiles": "C=CC(=O)Nc1cccc(C(=O)Nc2ccc(Nc3cc(-c4[nH]c(SC)nc4C)ccn3)cc2)c1", "values": [
      {"measurement": "% of control", "setting": "[4]; at 1 µM", "value": 99, "unit": "%"},
      {"measurement": "% of control", "setting": "[4]; at 5 µM", "value": 94, "unit": "%"},
      {"measurement": "% of control", "setting": "[5]; at 1 µM", "value": 76, "unit": "%"},
      {"measurement": "% of control", "setting": "[5]; at 5 µM", "value": 36, "unit": "%"}
    ]},
    {"smiles": "Cc1cc(F)c(C(=O)Nc2cccc(-c3nncn3C(C)C)n2)cc1-n1cnc(C2CC2)c1", "values": [
      {"measurement": "% of control", "setting": "[6]", "value": 75, "unit": "%"}
    ]},
    {"smiles": "COCC(=O)NC/C=C/c1ccc2ncnc(Nc3ccc(Oc4ccc(C)nc4)c(C)c3)c2c1", "note": "[CP-724714]", "values": [
      {"measurement": "% of control", "setting": "[7]", "value": 90, "unit": "%"},
      {"measurement": "% of control", "setting": "[8]", "value": 68, "unit": "%"},
      {"measurement": "% of control", "setting": "[9]", "value": 100, "unit": "%"},
      {"measurement": "% of control", "setting": "[10]", "value": 100, "unit": "%"}
    ]},
    {"smiles": "Cc1cnc(Nc2ccc(F)cc2Cl)nc1-c1c[nH]c(C(=O)N[C@H](CO)c2cccc(Cl)c2)c1", "values": [
      {"measurement": "% of inhibition", "setting": "[11]", "value": 0, "unit": "%"}
    ]},
    {"smiles": "Nc1cnc(N2CCc3cc(S(=O)(=O)Nc4c(F)cc(Cl)cc4F)cc(N4CCCC4=O)c32)nc1", "note": "[TP-020n]", "values": [
      {"measurement": "% of control", "setting": "[12]", "value": 100, "unit": "%"},
      {"measurement": "% of control", "setting": "[13]", "value": 80, "unit": "%"}
    ]},
    {"smiles": "Cc1cc([C@@H](C)Nc2ccccc2C(=O)O)c2nc(N3CCOCC3)cc(=O)n2c1", "note": "[AZD-6482]", "values": [
      {"measurement": "% of control", "setting": "[14]", "value": 100, "unit": "%"}
    ]},
    {"smiles": "N#Cc1cccc(-c2c[nH]c3ncnc(N4CCOCC4)c23)c1", "values": [
      {"measurement": "% of control", "setting": "[15]", "value": 33, "unit": "%"},
      {"measurement": "% of control", "setting": "[16]", "value": 100, "unit": "%"},
      {"measurement": "% of inhibition", "setting": "[17]", "value": 14, "unit": "%"}
    ]}
  ]
}
